In patent US20240368163A1, “COMPOUNDS AND METHODS FOR MODULATING SPLICING” (REMIX THERAPEUTICS INC., priority 2021, published 2024):
Read-outs that look alike come from different tables or passages of the source.

What was measured:
Assay type in all cases: cell-based, human
Target C [1] = assay: Splicing RT-qPCR panel, Target C canonical junction (CJ) mRNA; conditions: Homo sapiens, read-out: Target C IC50 (decrease in CJ mRNA levels)
Procedure, shortened: (§1)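 Cells: A673 (DMEM/10% FBS) or K562 (IMDM/10% FBS). Dose: 11-pt 3-fold, top 10 uM final, ≤0.25% DMSO, 24 h, 37 °C. Readout: RT-qPCR of CJ/AJ exon junctions, ΔΔCt vs housekeeper and DMSO, RQ to % response.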

HTT [2] = assay: Splicing RT-qPCR assay, HTT mRNA canonical junction (CJ) and alternative junction (AJ); conditions: Homo sapiens; for AC50: increase in AJ mRNA
Procedure, shortened: as §1

MYB [3] = assay: Splicing RT-qPCR assay, MYB mRNA canonical junction (CJ) and alternative junction (AJ); conditions: Homo sapiens; for AC50: increase in AJ mRNA
Procedure, shortened: as §1

MYB [4] = assay: HiBiT protein abundance assay, MYB; conditions: Homo sapiens, K562, 24 h, modified K562 cells
Procedure, shortened: (§2)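 Protein abundance measured by Nano-Glo HiBiT lytic luminescence after 24 h compound exposure of modified K562 lines, 10000 cells/well, top final dose 10 μM in 3-fold steps. Four-parameter fit of control-normalised response gives concentration reducing abundance to 50% of untreated.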

HTT [5] = assay: HiBiT protein abundance assay, HTT; conditions: Homo sapiens, K562, 24 h, modified K562 cells
Procedure, shortened: as §2

Target C [6] = assay: HiBiT protein abundance assay, Target C; conditions: Homo sapiens, K562, 24 h, modified K562 cells
Procedure, shortened: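 Target protein levels in engineered HiBiT-tagged cells were read by lytic luminescence after 24 h compound exposure (10000 cells/well, 10 μM top final, 3-fold steps, ≤0.25% DMSO). Unmodified K562 served as baseline; four-parameter regression gave concentration reducing abundance to 50%.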

SMN2 = assay: Splicing RT-qPCR panel, SMN2 canonical junction (CJ) mRNA; conditions: Homo sapiens, read-out: SMN2 IC50 (decrease in CJ mRNA levels)
Procedure, shortened: as §1

[7] = gene panel, CJ qPCR, protocol of Example 142
[8] = gene panel, CJ qPCR, protocol of Example 142, read-out: HTT IC50 (decrease in CJ mRNA levels)
[9] = gene panel, CJ qPCR, protocol of Example 142, read-out: MYB IC50 (decrease in CJ mRNA levels)
[10] = RT-qPCR panel, canonical junction mRNA, compound concentration having 50% response in CJ decrease
[11] = RT-qPCR panel, canonical junction mRNA, compound concentration having 50% response in CJ decrease, read-out: HTT IC50 (decrease in CJ mRNA levels)
[12] = RT-qPCR panel, canonical junction mRNA, compound concentration having 50% response in CJ decrease, read-out: MYB IC50 (decrease in CJ mRNA levels)
[13] = 24 h, A673 or K562 cells, 24 hours treatment, RT-qPCR
[14] = 24 h, decrease in CJ mRNA, A673 or K562 cells, 24 hours treatment, RT-qPCR, read-out: MYB CJ IC50
[15] = 24 h, decrease in CJ mRNA, A673 or K562 cells, 24 hours treatment, RT-qPCR, read-out: HTT CJ IC50

IC50 (Target C [1]; [10]) | IC50 (HTT [2]; [11]) | IC50 (MYB [3]; [12]) | IC50 (MYB [4]; Table 13A) | IC50 (HTT [5]; Table 13A) | IC50 (Target C [6]; Table 13A) | IC50 (SMN2; [10]) | SMILES | IC50 (Target C [1]; [7]) | IC50 (HTT [2]; [8]) | IC50 (MYB [3]; [9]) | IC50 (MYB [4]; Table 13B) | IC50 (HTT [5]; Table 13B) | IC50 (Target C [6]; Table 13B) | IC50 (SMN2; [7]) | AC50 (HTT [2]; [13]) | IC50 (MYB [3]; [14]) | AC50 (MYB [3]; [13]) | IC50 (HTT [2]; [15])
 |  |  |  |  |  |  | CNc1nc(-c2ccc(N(C)[C@@H]3C[C@H]4CC[C@@H](C3)N4)nn2)ccc1-c1cn[nH]c1 [Compound 936] | 100 to 1000 nM | 100 to 1000 nM | 1000 to 10000 nM | 100 to 1000 nM | 100 to 1000 nM | 100 to 1000 nM | < 100 nM |  |  |  | 
 |  |  |  |  |  |  | Cc1nc(-c2ccc(N(C)[C@@H]3C[C@H]4CC[C@@H](C3)N4)nn2)ccc1-c1cn[nH]c1 [Compound 912] | 1000 to 10000 nM | 1000 to 10000 nM | 1000 to 10000 nM | 1000 to 10000 nM | 1000 to 10000 nM | 1000 to 10000 nM | 100 to 1000 nM |  |  |  | 
 |  |  |  |  |  |  | COc1nc(-c2ccc(N(C)[C@@H]3C[C@H]4CC[C@@H](C3)N4)nn2)ccc1-c1cnnc(C)c1 [Compound 960] | 1000 to 10000 nM | 1000 to 10000 nM | 1000 to 10000 nM | 1000 to 10000 nM | 1000 to 10000 nM | > 10000 nM | 100 to 1000 nM |  |  |  | 
1000 to 10000 nM | 100 to 1000 nM | 1000 to 10000 nM | 1000 to 10000 nM | 100 to 1000 nM | 100 to 1000 nM | 100 to 1000 nM | c1nc2c(-c3cn[nH]c3)ccc(-c3cnc(N4CCN[C@@H](C5CC5)C4)nn3)c2s1 [Compound 552] |  |  |  |  |  |  |  |  |  |  | 
1000 to 10000 nM | 100 to 1000 nM | 1000 to 10000 nM | 1000 to 10000 nM | 100 to 1000 nM | 100 to 1000 nM | 100 to 1000 nM | c1cnn(-c2ccc(-c3ccc(N4CCNC(C5CC5)C4)nn3)c3cn[nH]c23)c1 (stereo not shown) [Compound 560] |  |  |  |  |  |  |  |  |  |  | 
 |  |  |  |  |  |  | COc1nc(-c2cnc(N(C)[C@@H]3C[C@H]4CC[C@@H](C3)N4)cn2)ccc1-c1cn[nH]c1 [Compound 980] | 1000 to 10000 nM | 1000 to 10000 nM | 1000 to 10000 nM | 1000 to 10000 nM | 1000 to 10000 nM | 1000 to 10000 nM | > 10000 nM |  |  |  | 
> 10000 nM | 1000 to 10000 nM | 1000 to 10000 nM | 1000 to 10000 nM | 1000 to 10000 nM | 1000 to 10000 nM | 1000 to 10000 nM | CC1(C)CN(c2ncc(-c3ccc(-c4cn[nH]c4)c4ncsc34)nn2)CC(C)(C)N1 [Compound 563] |  |  |  |  |  |  |  |  |  |  | 
 |  |  |  |  |  |  | COc1cnc(-c2ccc(-c3ccc(N(C)[C@@H]4C[C@H]5CC[C@@H](C4)N5)nn3)nc2OC)cn1 [Compound 951] | 100 to 1000 nM | 100 to 1000 nM | 100 to 1000 nM | 100 to 1000 nM | < 100 nM | 100 to 1000 nM | 100 to 1000 nM |  |  |  | 
> 10000 nM | 1000 to 10000 nM | > 10000 nM | 1000 to 10000 nM | 1000 to 10000 nM | 1000 to 10000 nM | 1000 to 10000 nM | c1nc2c(-c3cn[nH]c3)ccc(-c3ccc(N4CC5(CCNCC5)C4)nn3)c2s1 [Compound 197] |  |  |  |  |  |  |  | 1000 to 10000 nM | > 10000 nM | > 10000 nM | 1000 to 10000 nM

SMILES | IC50 (Target C [1]; [10]) | IC50 (HTT [2]; [11]) | IC50 (MYB [3]; [12]) | IC50 (MYB [4]; Table 13A) | IC50 (HTT [5]; Table 13A) | IC50 (Target C [6]; Table 13A) | IC50 (SMN2; [10]) | IC50 (Target C [1]; [7]) | IC50 (HTT [2]; [8]) | IC50 (MYB [3]; [9]) | IC50 (MYB [4]; Table 13B) | IC50 (HTT [5]; Table 13B) | IC50 (Target C [6]; Table 13B) | IC50 (SMN2; [7]) | AC50 (HTT [2]; [13]) | IC50 (MYB [3]; [14]) | AC50 (MYB [3]; [13]) | IC50 (HTT [2]; [15])
CN(c1ncc(-c2ccc(-c3cn[nH]c3)c3ncsc23)nn1)C1C[C@H]2CCC[C@H](C1)N2 (stereo partly shown) [Compound 421] | < 100 nM | < 100 nM | 100 to 1000 nM | 100 to 1000 nM | < 100 nM | < 100 nM | < 100 nM |  |  |  |  |  |  |  | < 100 nM | 100 to 1000 nM | 100 to 1000 nM | 
CCN(c1ccc(-c2ccc(-c3cn[nH]c3)c3ncsc23)nn1)C1CC(C)(C)NC(C)(C)C1 [Compound 225] | 1000 to 10000 nM | 1000 to 10000 nM | 100 to 1000 nM | 100 to 1000 nM | 100 to 1000 nM | 1000 to 10000 nM | 100 to 1000 nM |  |  |  |  |  |  |  | 1000 to 10000 nM | 100 to 1000 nM | > 10000 nM | 1000 to 10000 nM
